Data reported in patent US10874334B1, “Methods and systems for quantification of blood-brain barrier permeation of glycosylated peptides” (ARIZONA BOARD OF REGENTS ON BEHALF OF THE UNIVERSITY OF …, priority 2016, dated 2020).

Key:
[1] = Degradation study of enkephalins spiked into cerebral spinal fluid (CSF) from rats; settings: for stability (degradation) in CSF with 5% HAc: CSF from rats + 5% HAc (+CSF+HAc), compared with isotonic aCSF
[2] = Degradation study of enkephalins spiked into rodent serum (FIA-MS^n); settings: for stability (degradation) in serum with 5% acetic acid: rat serum + 5% acetic acid (HAc), 60-minute period before measurements (Ser+HAc+60 min); for stability (degradation) in serum: rat serum, peptides incubated in serum for 60 minutes prior to the study (Ser+60 min)
Experimental: Ser refers to when Enkephalins were added to rat serum and degradation was allowed to proceed and the remaining enkephalin levels were measured at specific time points. […] Ser+HAc+60 min refers to when 5% acetic acid (HAc) was added to the serum, preserving enkephalins by inhibiting degradation during a 60 minute period before beginning measurements (Ser+HAc+60 min.). All error bars are SEM. Statistical significance is indicated by asterisks when p<0.05.
Degradation studies of enkephalins in biological fluids were performed by […]. […] Enkephalins were added to rat serum and degradation was allowed to proceed and the remaining enkephalin levels were measured at specific time points (Ser).

Row | Compound | stability (degradation) in CSF ([1]; CSF from rats (+CSF), single exponential decay fit) | stability (degradation) in CSF with 5% HAc [1] | stability (degradation) in serum with 5% acetic acid [2] | stability (degradation) in serum [2]
1 | CC(C)C[C@H](NC(=O)[C@H](Cc1ccccc1)NC(=O)CNC(=O)CNC(=O)[C@@H](N)Cc1ccc(O)cc1)C(=O)O [Leu-Enkephalin, leucine enkephalin] | degradation occurs in CSF over 20 minutes | prevents the degradation | preserved enkephalins by inhibiting degradation | degradation was already complete
2 | methionine enkephalin [Met-Enkephalin] | – | prevents the degradation | preserved enkephalins by inhibiting degradation | degradation was already complete
